Results on 17 molecules are retold here after patent US20020091148A1, “3-substituted indole antiproliferative angiogenesis inhibitors” (priority 2000, published 2002).

SMILES strings stand for the structures.

Tested on in one data set: not given
Conditions: not given
As a reminder, the melting point is the temperature of the solid-liquid transition. `CN(N=Cc1ccc(C#N)cc1)C(=O)c1[nH]c2ccccc2c1-c1ccccc1` [Example 150, N′-((4-cyanophenyl)methylidene)-N-methyl-3-phenyl-1H-indole-2-carbohydrazide] registered a melting point of 194 to 196 °C.

For the molecule `CSc1c(C(=O)NN=Cc2ccc(Cl)cc2)[nH]c2ccccc12` [Example 108, N′-((4-chlorophenyl)methylidene)-3-(methylthio)-1H-indole-2-carbohydrazide], the melting point is 232 to 235 °C.

Molecule `O=C(NN=Cc1ccc(Cl)cc1)c1[nH]c2ccccc2c1Cc1ccccc1` [Example 103, 3-benzyl-N′-((4-chlorophenyl)methylidene)-1H-indole-2-carbohydrazide] yielded a melting point of 221 to 222 °C.

In the case of `CS(=O)(=O)c1c(C(=O)NN=Cc2nccs2)[nH]c2ccccc12` [Example 111, 3-(methylsulfonyl)-N′-(1,3-thiazol-2-ylmethylidene)-1H-indole-2-carbohydrazide], the melting point was greater than 280 °C.

`CN(N=Cc1cnc[nH]1)C(=O)c1[nH]c2ccccc2c1-c1ccccc1` [Example 152, N′-(1H-imidazol-5-ylmethylidene)-N-methyl-3-phenyl-1H-indole-2-carbohydrazide] registered a melting point of 248 to 250 °C.

Consider `CN(C)C(=O)c1c(C(=O)NN=Cc2ccc3ccccc3c2)[nH]c2ccccc12` [Example 136, N,N-dimethyl-2-((2-(2-naphthylmethylene)hydrazino)carbonyl)-1H-indole-3-carboxamide], for which the melting point was 256 to 260 °C.

`CN(N=Cc1ccco1)C(=O)c1[nH]c2ccccc2c1-c1ccccc1` [Example 149, N′-(2-furylmethylidene)-N-methyl-3-phenyl-1H-indole-2-carbohydrazide] came in with a melting point of 196 to 199 °C.

Regarding `CN(N=Cc1ccc(Br)cc1)C(=O)c1[nH]c2ccccc2c1-c1ccccc1` [Example 151, N′-((4-bromophenyl)methylidene)-N-methyl-3-phenyl-1H-indole-2-carbohydrazide], the melting point lay in the range of 210 to 212 °C.

The molecule `CCN(CC)C(=O)c1c(C(=O)NN=Cc2ccc(Cl)cc2)[nH]c2ccccc12` [Example 105, 2-((2-(4-chlorobenzylidene)hydrazino)carbonyl)-N,N-diethyl-1H-indole-3-carboxamide] had a melting point of 255 to 257 °C.

Molecule `O=C(NN=Cc1ccc(Cl)cc1)c1[nH]c2ccccc2c1Br` [Example 119, 3-bromo-N′-((4-chlorophenyl)methylidene)-1H-indole-2-carbohydrazide] registered a melting point greater than 250 °C.

`O=C(NN=Cc1ccc(Cl)cc1)c1[nH]c2ccccc2c1C(=O)Nc1ccccc1` [Example 107, 2-((2-(4-chlorobenzylidene)hydrazino)carbonyl)-N-phenyl-1H-indole-3-carboxamide] displayed a melting point greater than 260 °C.

Turning to `CS(=O)(=O)c1c(C(=O)NN=Cc2ccc(Cl)cc2)[nH]c2ccccc12` [Example 110, N′-((4-chlorophenyl)methylidene)-3-(methylsulfonyl)-1H-indole-2-carbohydrazide], the melting point is greater than 280 °C.

In turn, `O=C(NN=Cc1ccc(Br)cc1)c1[nH]c2ccccc2c1Cc1ccccc1` [Example 104, 3-benzyl-N′-((4-bromophenyl)methylidene)-1H-indole-2-carbohydrazide] registered a melting point of 227 to 229 °C.

Turning to `CS(=O)(=O)c1c(C(=O)NN=Cc2cccc3ccccc23)[nH]c2ccccc12` [Example 135, 3-(methylsulfonyl)-N′-(1-naphthylmethylidene)-1H-indole-2-carbohydrazide], the melting point is greater than 250 °C.

`COc1c(C(=O)NN=Cc2ccc(Cl)cc2)[nH]c2ccccc12` [Example 118, N′-((4-chlorophenyl)methylidene)-3-methoxy-1H-indole-2-carbohydrazide] gave a melting point of 249 to 251 °C.

On to `CSc1c(C(=O)NN=Cc2nccs2)[nH]c2ccccc12` [Example 109, 3-(methylthio)-N′-(1,3-thiazol-2-ylmethylidene)-1H-indole-2-carbohydrazide], for which the melting point lay in the range of 216 to 222 °C.

The next data set relates to certain tumor models. Conditions: Adv. Cancer Res. 2000, 79, 1-38; cited from earlier work.
Regarding `Cc1cc(C)c(/C=C2\C(=O)Nc3ccccc32)[nH]1` [SU5416], the “in vivo activity against certain tumor models” value is given as “good in vivo activity”.
